24 compounds from ChEMBL document CHEMBL3044976, “Screening and evaluation of rat kidney aldose reductase inhibitory activity of some pyridazine derivatives” (Med Chem Res, 2006) can be followed below.

The experiment deals with Aldo-keto reductase family 1 member B1 (Rattus norvegicus) (UniProt P07943). In words: Inhibition of Rattus norvegicus albino (rat) kidney aldose reductase using DL-glyceraldehyde as substrate assessed as decrease in NADPH concentRattus norvegicus (rat) ion at 10^-4 M after 5 min by spectrophotometrically.
Turning to `Cc1cc(-c2ccccc2)nn1-c1ccc(=O)n(CC(=O)NCCc2ccccc2)n1`, the inhibition worked out at 0%.

`O=C(CCc1cc(-c2ccc(Cl)cc2)n(-c2ccc(Cl)nn2)n1)Nc1ccc(Cl)cc1`: the inhibition is 0%.

In the case of `Cc1cc(-c2ccccc2)nn1-c1ccc(=O)n(CC(=O)Nc2ccc(Cl)cc2)n1`, the inhibition stood at 0%.

As for `O=C(CCc1cc(-c2ccc(Cl)cc2)n(-c2ccc(Cl)nn2)n1)N1CCCCC1`, the inhibition was found to be 0%.

`O=C(O)CCc1cc(-c2ccc(Cl)cc2)n(-c2ccc(Cl)nn2)n1`: the inhibition is 0.76%.

Consider `CCOC(=O)Cn1nc(-n2nc(-c3ccccc3)cc2C)ccc1=O`, for which the inhibition stood at 0%.

Consider `Cc1cc(C)n(-c2ccc(=O)n(CC(=O)NCCc3ccccc3)n2)n1`, for which the inhibition was determined as 0%.

As to `CCOC(=O)Cn1nc(-n2nc(C)c(Cl)c2C)ccc1=O`, the inhibition was determined as 0%.

For the compound `Cc1cc(-c2ccccc2)nn1-c1ccc(=O)n(CC(=O)Nc2cccnc2)n1`, the inhibition came out at 3.37%.

As for `Cc1cc(C)n(-c2ccc(=O)n(CC(=O)N3CCN(c4ccc(F)cc4)CC3)n2)n1`, the inhibition came out at 1.85%.

Consider `Cc1cc(-c2ccccc2)nn1-c1ccc(=O)n(CC(=O)N2CCN(c3ccc(F)cc3)CC2)n1`, for which the inhibition was 0%.

`Cc1nn(-c2ccc(=O)n(CC(=O)NCCc3ccccc3)n2)c(C)c1Cl`: the inhibition is 0%.

As for `O=C(CCc1cc(-c2ccc(Cl)cc2)n(-c2ccc(Cl)nn2)n1)NCCc1ccccc1`, the inhibition turned out to be 0%.

Regarding `Cc1cc(C)n(-c2ccc(=O)n(CC(=O)Nc3cccnc3)n2)n1`, the inhibition was 0%.

On to `Cc1cc(-c2ccccc2)nn1-c1ccc(=O)n(CC(=O)O)n1`, for which the inhibition is 0.76%.

Turning to `Cc1cc(C)n(-c2ccc(=O)n(CC(=O)Nc3ccc(Cl)cc3)n2)n1`, the inhibition turned out to be 0%.

As to `Cc1cc(C)n(-c2ccc(=O)n(CC(=O)N3CCN(c4ccccc4F)CC3)n2)n1`, the inhibition was 0%.

On to `Cc1nn(-c2ccc(=O)n(CC(=O)O)n2)c(C)c1Cl`, for which the inhibition was determined as 0.98%.

As for `Cc1nn(-c2ccc(=O)n(CC(=O)N3CCCCC3)n2)c(C)c1Cl`, the inhibition was determined as 0%.

For the compound `Cc1nn(-c2ccc(=O)n(CC(=O)Nc3ccc(F)cc3)n2)c(C)c1Cl`, the inhibition was 0%.

In the case of `CCOC(=O)Cn1nc(-n2nc(C)cc2C)ccc1=O`, the inhibition was 0%.

Consider `Cc1cc(-c2ccccc2)nn1-c1ccc(=O)n(CC(=O)N2CCN(c3ccccc3F)CC2)n1`, for which the inhibition is 1.85%.

`Cc1nn(-c2ccc(=O)n(CC(=O)Nc3ccc(Cl)cc3)n2)c(C)c1Cl`: the inhibition is 0%.

Regarding `Cc1cc(C)n(-c2ccc(=O)n(CC(=O)O)n2)n1`, the inhibition is 7.73%.

The term inhibition denotes the change of the read-out against control, counted positive when it falls.
